Read-outs that look alike come from different tables or passages of the source. One block for each compound: values may come before it.
Key:
[1] = test system: ET replicon with NS5B P495L; assay: microbe, parasite or virus in culture; format: cell-based, HCV
[2] = test system: erythroid progenitor cells (CFU-E and BFU-E); assay: Human bone marrow stem cell toxicity, 14-day colony formation, erythroid; format: cell-based; conditions: 1 μg/mL (4 μM), 14 days
[3] = test system: myeloid progenitor cells (CFU-GM); assay: Human bone marrow stem cell toxicity, 14-day colony formation, myeloid; format: cell-based; conditions: 1 μg/mL (4 μM), 14 days
[4] = test system: ET replicon with NS5B M414T; assay: microbe, parasite or virus in culture; format: cell-based, HCV
[5] = test system: Human nucleoside diphosphate kinase (NDPK); assay: NDPK-mediated phosphorylation, coupled assay; format: biochemical
[6] = 8-day MTS cytotoxicity assay, Huh7; format: cell-based, human; conditions: human, Huh7 cells
[7] = 8-day MTS cytotoxicity assay, HepG2; format: cell-based, human; conditions: human, HepG2 cells
[8] = 8-day MTS cytotoxicity assay, BxPC3; format: cell-based, human; conditions: human, BxPC3 cells
[9] = 8-day MTS cytotoxicity assay, CEM; format: cell-based, human; conditions: human, CEM cells
[10] = test system: ET replicon with NS5B C316Y; assay: microbe, parasite or virus in culture; format: cell-based, HCV
recombinant human ADAL1 = biological target: T1, recombinant human ADAL1 (Homo sapiens, UniProt Q6DHV7); assay: ADAL1-mediated demethylation assay; format: biochemical; conditions: ADAL1, pH 6.7, 37°C
T1 sequence (Q6DHV7 1-355): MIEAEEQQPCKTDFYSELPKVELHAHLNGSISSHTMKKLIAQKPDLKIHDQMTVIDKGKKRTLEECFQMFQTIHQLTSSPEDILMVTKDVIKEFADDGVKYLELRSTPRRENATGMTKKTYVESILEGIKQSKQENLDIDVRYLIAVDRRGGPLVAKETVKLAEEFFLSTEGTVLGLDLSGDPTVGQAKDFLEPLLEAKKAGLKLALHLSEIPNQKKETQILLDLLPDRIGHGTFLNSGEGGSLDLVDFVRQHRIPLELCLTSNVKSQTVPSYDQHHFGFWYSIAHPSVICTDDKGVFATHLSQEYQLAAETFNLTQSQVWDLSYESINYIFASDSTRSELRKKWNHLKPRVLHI

[11] = test system: genotype 1a H77 subgenomic replicon; assay: HCV replicon assay, genotype 1a H77; format: cell-based; conditions: GT1a_H77 replicon, four days
[12] = test system: genotype 1b replicon (Con1 strain); assay: HCV replicon assay, genotype 1b Con1; format: cell-based; conditions: GT1b_Con1 replicon, four days (96 h)
[13] = test system: genotype 2a J6/JFH-1 subgenomic replicon; assay: HCV replicon assay, genotype 2a J6/JFH-1; format: cell-based; conditions: GT2a_JFH-1 replicon, four days
[14] = test system: primary human hepatocytes; assay: Metabolism of [3H]-PSI-353661 in primary human hepatocytes; format: in vitro ADME; conditions: continuous exposure to 5 μM [3H]-PSI-353661
[15] = test system: genotype 1b ET replicon, wild type; format: cell-based, HCV; conditions: read-out: EC90 WT replicon; wild-type ET replicon, luciferase-based assay
[16] = test system: ET replicon with NS5B S96T/N142T; assay: microbe, parasite or virus in culture; format: cell-based, HCV; conditions: for EC90 fold change: S96T/N142T mutant EC90 normalised to wild-type; for EC90: read-out: EC90 Mutant replicon
[17] = test system: Clone A wild type replicon; assay: Cross resistance: Clone A wild type replicon, RT-PCR; format: cell-based, HCV; conditions: read-out: EC90 WT replicon
[18] = test system: Clone A replicon with NS5B S282T; assay: microbe, parasite or virus in culture; format: cell-based, HCV; conditions: for EC90 fold change: S282T mutant EC90 normalised to wild-type; for EC90: read-out: EC90 Mutant replicon
[19] = biological target: T2, Human guanylate kinase (hGUK1) (Homo sapiens, UniProt Q16774); assay: hGUK1-mediated phosphorylation, coupled spectrophotometric assay; format: biochemical
T2 sequence (Q16774 1-197): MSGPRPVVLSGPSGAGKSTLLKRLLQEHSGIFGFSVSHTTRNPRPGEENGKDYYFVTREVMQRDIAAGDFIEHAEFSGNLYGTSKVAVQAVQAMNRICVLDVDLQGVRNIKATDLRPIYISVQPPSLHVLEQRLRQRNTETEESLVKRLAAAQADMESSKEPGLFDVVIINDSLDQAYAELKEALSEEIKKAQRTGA

[20] = test system: ET replicon with NS5B M423T; format: cell-based, HCV
HepG2 cells [21] = assay: Mitochondrial COXII DNA and ribosomal DNA by real time PCR, HepG2; format: cell-based, human; conditions: HepG2 cells, 0.5 μM (lowest concentration tested), 14 days
[22] = test system: mitochondrial COXII DNA (mtDNA); assay: as above; format: cell-based, human; conditions: human
ribosomal DNA (rDNA) [23] = assay: as above; format: cell-based, human; conditions: human, HepG2 cells
CEM cells [24] = assay: Mitochondrial COXII DNA and ribosomal DNA by real time PCR, CEM; format: cell-based, human; conditions: CEM cells, 0.5 μM (lowest concentration tested), 14 days
[25] = test system: mitochondrial COXII DNA (mtDNA); assay: as above; format: cell-based, human; conditions: human
ribosomal DNA (rDNA) [26] = assay: as above; format: cell-based, human; conditions: human, CEM cells
CEM cells [27] = assay: Lactic acid production, CEM; conditions: 7 days, normalised to rDNA
HepG2 cells [28] = assay: Lactic acid production, HepG2; conditions: 7 days, normalised to rDNA
[29] = Hepatitis C virus, read-out: EC90 Mutant replicon

SMILES: COc1ccc2c(c1)C1CC1(N)Cn1c-2c(C2CCCCC2)c2ccc(C(=O)NS(=O)(=O)N(C)C)cc21 (stereo not shown) [2-phenol indole, 5a-amino-12-cyclohexyl-N-(N,N-dimethylsulfamoyl)-3-methoxy-4b,5,5a,6-tetrahydrobenzo [3,4] cyclopropa [5,6] azepino [1,2-a] indole-9-carboxamide, reference compound]
- EC90 [1, 29]: 60.8 ± 19.9 µM
- EC90 fold change ([1]; P495L mutant EC90 normalised to wild-type): 51.9

SMILES: O=c1[nH]cc(F)c(=O)[nH]1 [5-fluorouracil, 5-Fluorouracil, reference compound]
- inhibition of BFU-E colony formation [2]: completely inhibited
- inhibition of CFU-GM colony formation [3]: completely inhibited

SMILES: CC(C)CCn1c(=O)c(C2=NS(=O)(=O)c3cc(N(C)S(C)(=O)=O)ccc3N2)c(O)c2cccn21 [Benzothiadiazine, N-{3-[4-Hydroxy-1-(3-methyl-butyl)-2-oxo-1,2-dihydro-pyrrolo[1,2-b]pyridazin-3-yl]-1,1-dioxo-1,4-dihydro-1λ^6-benzo[1,2,4]thiadiazin-7-yl}-N-methyl-methanesulfonamide, reference compound]
- EC90 [4, 29]: 28.4 ± 13.7 µM
- EC90 fold change ([4]; M414T mutant EC90 normalised to wild-type): 23.1

- kcat (apparent) ([5]; 25 °C, PK contributed in the phosphorylation): 38.8 ± 5.0 s⁻¹
- Km ([5]; read-out: Km (apparent), 25 °C, PK contributed in the phosphorylation): 56.2 ± 4.9 µM
SMILES: Nc1nc2c(ncn2[C@@H]2O[C@H](COP(=O)(O)OP(=O)(O)O)[C@@H](O)[C@H]2O)c(=O)[nH]1 [GDP, guanosine-5′-diphosphate, reference compound]

SMILES: Nc1ccn([C@@H]2O[C@H](CO)[C@@H](O)C2(F)F)c(=O)n1 [Gemcitabine, 2′-deoxy-2′-difluorocytidine]
- CC50 at 8 days [6]: < 1 µM
- CC50 at 8 days [7]: < 1 µM
- CC50 at 8 days [8]: < 1 µM
- CC50 at 8 days [9]: < 1 µM

SMILES: CNC(=O)c1c(-c2ccc(F)cc2)oc2cc(N(CCO)S(C)(=O)=O)c(C3CC3)cc12 [HCV-796, 5-cyclopropyl-2-(4-fluoro-phenyl)-6-[(2-hydroxy-ethyl)-methanesulfonyl-amino]-benzofuran-3-carboxylic acid methylamide, reference compound]
- EC90 fold change ([10]; C316Y mutant EC90 normalised to wild-type): 73.9
- EC90 [10, 29]: 1.92 ± 0.77 µM

- Km (recombinant human ADAL1): 12.5 ± 1.6 µM
- kcat (recombinant human ADAL1): 1.58 ± 0.12 s⁻¹
SMILES: CNc1ncnc2c1ncn2[C@@H]1O[C@H](COP(=O)(O)O)[C@@H](O)[C@H]1O [N^6-meAMP, N^6-methyl AMP, reference compound]

- Km (recombinant human ADAL1): 5.2 ± 0.9 µM
- kcat (recombinant human ADAL1): 2.33 ± 0.07 s⁻¹
SMILES: COc1nc(N)nc2c1ncn2[C@@H]1O[C@H](COP(=O)(O)O)[C@@H](O)[C@H]1O [O^6-meGMP, O^6-methyl GMP, reference compound]

SMILES: C[C@@]1(F)[C@H](O)[C@@H](CO)O[C@H]1n1cnc2c(=O)[nH]c(N)nc21 [PSI-6567, 2′-F-2′-C-methylguanosine]
- EC50 [11]: 19 ± 8.6 µM
- EC90 [11]: 53.4 ± 12.8 µM
- EC50 [12]: 22 ± 7.7 µM
- EC90 [12]: 69.2 ± 19.3 µM
- EC50 [13]: 38.3 ± 18.6 µM
- EC90 [13]: 60 ± 14.8 µM
- time to maximum intracellular concentration [14]: 0.5 to 1 h

SMILES: CC(C)OC(=O)[C@H](C)NP(=O)(OC[C@H]1O[C@@H](n2ccc(=O)[nH]c2=O)[C@](C)(F)[C@@H]1O)Oc1ccccc1 (stereo partly shown) [PSI-7851]
- EC90 [15]: 0.43 ± 0.23 µM
- EC90 fold change [16]: 0.9
- EC90 ([16]; S96T/N142T, luciferase-based assay): 0.39 ± 0.19 µM
- EC90 ([17]; Clone A wild type replicon, RT-PCR assay): 0.44 ± 0.21 µM
- EC90 fold change [18]: 16.7
- EC90 ([18]; S282T, RT-PCR assay): 7.36 ± 1.02 µM

- time to maximum intracellular concentration [14]: 0.5 to 1 h
SMILES: COc1nc(N)nc2c1ncn2[C@@H]1O[C@H](CO)[C@@H](O)[C@@]1(C)F [PSI-352878, (2R,3R,4R,5R)-5-(2-amino-6-methoxy-purin-9-yl)-4-fluoro-2-hydroxymethyl-4-methyl-tetrahydro-furan-3-ol]

- time to maximum intracellular concentration [14]: 0.25 h
- Km (recombinant human ADAL1): No activity
- kcat (recombinant human ADAL1): No activity
- kcat / Km (recombinant human ADAL1): No activity
SMILES: COc1nc(N)nc2c1ncn2[C@@H]1O[C@H](COP(=O)(O)N[C@@H](C)C(=O)O)[C@@H](O)[C@@]1(C)F [PSI-353131, (S)-2-{[(2R,3R,4R,5R)-5-(2-amino-6-methoxy-purin-9-yl)-4-fluoro-3-hydroxy-4-methyl-tetrahydro-furan-2-ylmethoxy]-hydroxy-phosphorylamino}-propionic acid]

- time to maximum intracellular concentration [14]: 1 to 2 h
- Km compared to GMP (fold weaker) ([19]; hGUK1): 3.4 fold
- kcat compared to GMP (fold lower) ([19]; hGUK1): approximately 240 fold
- Km ([19]; hGUK1, 37°C): 64.9 ± 1.6 µM
- kcat ([19]; hGUK1, 37°C): 0.31 ± 0.03 s⁻¹
SMILES: C[C@@]1(F)[C@H](O)[C@@H](COP(=O)(O)O)O[C@H]1n1cnc2c(=O)[nH]c(N)nc21 [PSI-353222, 2′-deoxy-2-α-fluoro-2-β-C-methylguanosine-5′-monophosphate]

- time to maximum intracellular concentration [14]: 0.5 to 1 h
- Km (recombinant human ADAL1): 9 ± 2.1 µM
- kcat (recombinant human ADAL1): 5.84 ± 0.40 s⁻¹
- activity as substrate ([19]; hGUK1, 500 μM, the highest concentration tested): No activity
- Km ([19]; hGUK1, 37°C): No activity
- kcat ([19]; hGUK1, 37°C): No activity
- kcat / Km ([19]; hGUK1, 37°C): No activity
SMILES: COc1nc(N)nc2c1ncn2[C@@H]1O[C@H](COP(=O)(O)O)[C@@H](O)[C@@]1(C)F [PSI-353224, 2-amino-6-methoxypurine 2′-deoxy-2′-α-fluoro-2-β-C-methylribose-5′-monophosphate]

SMILES: [N-]=[N+]=N[C@]1(CO)O[C@@H](n2ccc(N)nc2=O)[C@H](O)[C@@H]1O [R1479, 4′-azidocytidine]
- EC90 ([16]; Hepatitis C virus): 74.1 ± 12.1 µM
- EC90 fold change [16]: 4.7
- EC90 ([17]; Hepatitis C virus): 22.4 ± 4.58 µM
- EC90 ([18]; Hepatitis C virus): 12.5 ± 3.78 µM
- EC90 fold change [18]: 0.6

SMILES: CC(C)N(c1cc(-c2ccccc2)sc1C(=O)O)C(=O)[C@H]1CC[C@H](C)CC1 [Thiophene, 3-((1r,4r)-N-isopropyl-4-methylcyclohexanecarboxamido)-5-phenylthiophene-2-carboxylic acid, reference compound]
- EC90 [15]: 3.65 ± 0.21 µM
- EC90 fold change ([20]; M423T mutant EC90 normalised to wild-type): 19.1
- EC90 ([20]; read-out: EC90 Mutant replicon, M423T, luciferase-based assay): 69.5 ± 9.24 µM

SMILES: Nc1ccn([C@H]2CC[C@@H](CO)O2)c(=O)n1 [ddC, 2′,3′-dideoxycytidine]
- reduction of mitochondrial DNA levels (HepG2 cells [21]): more than one log10
- CC90 at 14 days [22]: < 0.5 µM
- CC90 at 14 days (ribosomal DNA (rDNA) [23]): 12.9 ± 9.1 µM
- reduction of mitochondrial DNA levels (CEM cells [24]): more than one log10
- CC90 at 14 days [25]: < 0.5 µM
- CC90 at 14 days (ribosomal DNA (rDNA) [26]): 22.9 ± 11.9 µM
- Lactic acid (Fold change from untreated cells) (CEM cells [27]; 0.1 μM): 0.9 ± 0.3
- Lactic acid (Fold change from untreated cells) (CEM cells [27]; 1.0 μM): 2.2 ± 0.81
- Lactic acid (Fold change from untreated cells) (CEM cells [27]; 10 μM): 4.2 ±1.0
- Lactic acid (Fold change from untreated cells) (CEM cells [27]; 50 μM): Toxic
- Lactic acid (Fold change from untreated cells) (HepG2 cells [28]; 0.1 μM): 1.6 ± 0.68
- Lactic acid (Fold change from untreated cells) (HepG2 cells [28]; 1.0 μM): 1.4 ± 0.12
- Lactic acid (Fold change from untreated cells) (HepG2 cells [28]; 10 μM): 3.9 ± 0.93
- Lactic acid (Fold change from untreated cells) (HepG2 cells [28]; 50 μM): Toxic.

Source: article PMC3135787 (Antiviral research, 2011)
